This note sets out measurements from patent US11826431B2, “Polypeptide-based ocular absorption enhancer and application thereof” (Fudan University, priority 2017, dated 2023).

Where a SMILES comes first, the peptide text is derived from it. The star is where a group is joined. 5FAM = O=C1OC2(c3ccc(O)cc3Oc3cc(O)ccc32)c2ccc(C(=O)*)cc21

Data set [1] in a line: In vitro tissue permeability, isolated cornea (diffusion cells). The format is in vitro ADME, rabbit. Here is the method:
(§1) Evaluation of in vitro tissue permeability of the covalently linked complex of Penetratin derivatives and small molecular substances: the experimental rabbits were anesthetized with pentobarbital sodium (30 mg/kg), which is injected via ear vein, and sacrificed by injection with excessive chloral hydrate (150 mg/kg). After separation of the conjunctiva, carefully removed the entire eyeball, make a circumcision at about 2 mm from the limbus of cornea and remove the cornea, and removed the iris and other tissues to obtain an experimental cornea. The rest of the eyeballs were removed from the retina and other tissues to obtain an experimental sclera. Both the cornea and sclera were carefully washed with Ringer's solution 3 times before use. The experiment was started within 30 min after the animals were sacrificed. The freshly isolated cornea and sclera were carefully sandwiched between two diffusion cells, with the epithelial surface facing a diffusion cell (supply cell) on the left, the diffusion window diameter was 10.25 mm, and the diffusion area was 0.825 cm^2. 3.5 mL of Ringer's solutions were added to the supply cell and a receiving cell on the right, respectively. Circulating water was passed therein, and the water temperature was kept at 34° C.±0.5° C. […] Immediately after the experiment, the fluorescence intensity of the sample was measured. […]

Data set [2] is described as follows: In vitro tissue permeability, isolated sclera (diffusion cells). Type of data set: in vitro ADME, rabbit. How it is done: as §1
Data set [3] can be described thus: Intraocular distribution of penetratin derivative-FAM complexes after conjunctival sac administration. Type of data set: in vivo, mice. Here is the method:
Evaluation of intraocular distribution of the covalently linked complex of Penetratin derivatives and small molecules: 5 μL of a solution of complex of penetratin derivative and FAM (concentration 30 μM) was dripped into the conjunctival sac of male mice, and the eyelids were gently closed to distribute the solution evenly. The solution was administered every 10 minutes for a total of 3 times, and taking the time of the last administration as zero time. At a preset time point, mice were killed by intraperitoneal injection of excessive chloral hydrate, and the eyeballs of the mice were removed, fixed with Davidson's solution for 0.5 h, and embedded. Frozen longitudinal sections of eyeballs were prepared and the nuclei were stained with DAPI, and the distribution of polypeptides in the eye parts was observed under an inverted fluorescence microscope.

The mark [4] stands for this setting: 7.5 μM complex with FAM, 34° C.
[5] abbreviates: DAPI stained frozen sections after permeability experiment.
Where [6] appears, read: 10 min after conjunctival sac administration (FIG. 6B).

Consider `C[C@H](NC(=O)[C@H](C)NC(=O)[C@H](CCCCN)NC(=O)[C@H](C)NC(=O)[C@H](CCC(N)=O)NC(=O)[C@@H](N)CCCNC(=N)N)C(=O)N[C@@H](C)C(=O)N[C@@H](CCC(N)=O)C(=O)N[C@@H](CC(N)=O)C(=O)N[C@@H](CCCNC(=N)N)C(=O)N[C@@H](CCCNC(=N)N)C(=O)N[C@@H](C)C(=O)N[C@@H](CCCCN)C(=O)N[C@@H](C)C(=O)N[C@@H](CCCCN)C(=O)N[C@@H](CCCCN)C(=O)N[C@@H](CCCCNC(=O)c1ccc2c(c1)C(=O)OC21c2ccc(O)cc2Oc2cc(O)ccc21)C(=O)O` [6A, RQAKAAAQNRRAKAKKK-FAM] (H-RQAKAAAQNRRAKAKKK(5FAM)-OH), for which, in data set [1] (setting [4]), the “Papp value relative to wild-type penetratin, isolated cornea” value is “⅕”. Moreover, the “fluorescence in isolated cornea sections compared with wild-type penetratin group” value in data set [1] (setting [5]) is “no obvious fluorescence signal”. In addition, the “Papp value relative to wild-type penetratin, isolated sclera” value in data set [2] (setting [4]) is listed as “⅔”. Besides, the “fluorescence signal in isolated sclera sections compared with wild-type penetratin group” value in data set [2] (setting [5]) is “significantly weaker”. In addition, in data set [3] (setting [6]), the “distribution in the cornea” value is listed as “significantly less distributed” and the “distribution in the retina” value was “less distributed”. Besides, the “FAM fluorescence signal in anterior and posterior segment of the eye compared with wild-type penetratin” value in data set [3] (10 minutes after eye drops, 30 μM, 5 μL x 3) is reported as “weakened”. Moreover, the “amount entering the eye (cornea and retina) compared with wild-type penetratin” value in data set [3] (semi-quantitative analysis (FIG. 6C)) is listed as “significantly less”.
